16 compounds from patent publication US11447470B2, “Pyrimidinone-containing compound, preparation method thereof, pharmaceutical composition and application thereof” (YUNNAN UNIVERSITY, priority 2018, dated 2022) can be followed below.

Each structure is given as a SMILES string. pEC50: −log10 of the molar value. Where two headings read alike, the source gives them in different places. Bounds are passed on as bounds.

Format in all cases: cell-based
The subject of one data set is C8166 cells. Nature of the data set: Cytotoxicity experiment (MTT method) on C8166 cells. Here is the method: (§1) C8166 cells infected with HIV-1 were used for determining the anti-HIV biological activity at the cellular level. The specific method was described below.
(§2) Cytotoxicity experiment: The toxicity of the compounds on C8166 cells was determined by MTT method. In 96-well cell culture plates, the compounds were subjected to 5-fold serial dilution and 100 μL of C8166 cell suspension (4×10^5/mL) was added into each well. Triplicate wells were set for each concentration. […] The cells were incubated at 37° C. in a 5% CO2 incubator for three days, followed by the addition of MTT solution into each well, and then the cells were incubated at 37° C. for 4 hours. 10% SDS-50% DMF was added into each well and the cells were incubated at 37° C. in a 5% CO2 incubator overnight. After mixing evenly, the OD values were measured by BIO-TEK ELx800 ELISA instrument (determination wavelength: 570 nm; reference wavelength: 630 nm).

Assay in data set [1]: as above
Conditions: human. The protocol:
as §1, §2

The next data set concerns HIV-1IIIB. As to the kind of experiment: Syncytium inhibition experiment, C8166 cells infected with HIV-1IIIB. The note with it: Human immunodeficiency virus 1, 72 h; HIV-1IIIB (MOI=0.04) in C8166 cells, syncytium count, three days. The protocol: as §1
Syncytium inhibition experiment: 100 μL of C8166 cell suspension (4×10^5/mL) was seeded into each well of 96-well cell culture plates containing 5-fold serial dilutions of the compounds, followed by addition of HIV-1IIIB diluted supernatant (MOI=0.04). Triplicate wells were set for each serial concentration. […] The cells were cultured at 37° C. in a 5% CO2 incubator for three days. The number of the syncytia was counted in five non-overlapping fields of view by using an inverted microscope (100×).

For the compound `CCc1c(CC2CCCCC2)nc(SCc2n[nH]c(-c3ccc(Cl)c(Cl)c3)c2Cl)[nH]c1=O` [Compound I-13], the CC50 in the data set on C8166 cells (C8166 cells, MTT, three days, read-out: CC50) is above 200000 nM. For the same compound, in data set [1] (C8166 cells in vitro, read-out: CC50 values on C8166 cells), the CC50 at 3 days was above 200000 nM. In addition, the negative-log EC50 (pEC50) with HIV-1IIIB was 6.46.
Take `COc1ccc(-c2cc(CSc3nc(CC4CCCCC4)c(C(C)C)c(=O)[nH]3)n[nH]2)cc1` [Compound I-40]: the CC50 in the data set with C8166 cells (human, 3 days) was above 200000 nM. The compound also gave a CC50 at 3 days in data set [1] above 200000 nM. For the same compound, the pEC50 in the data set on HIV-1IIIB was 7.92.
`CCc1c(Cc2ccccc2)nc(SCc2cc(-c3ccc(F)cc3)[nH]n2)[nH]c1=O` [Compound I-49] yielded a CC50 with C8166 cells (human, 3 days) above 200000 nM. In addition, the cytotoxic concentration (CC50) at 3 days in data set [1] was above 200000 nM. This compound also gave a negative logarithm of the EC50 (pEC50) with HIV-1IIIB of 6.08.
With `CCc1c(Cc2cc(F)cc(F)c2)nc(SCc2cc(-c3ccc(F)cc3)[nH]n2)[nH]c1=O` [Compound I-52], the CC50 in the data set on C8166 cells (human, 3 days) is above 200000 nM. The compound also had a cytotoxic concentration (CC50) at 3 days in data set [1] above 200000 nM. The pEC50 in the data set on HIV-1IIIB was 7.01.
With `CCc1c(Cc2ccccc2)nc(SCc2n[nH]c(-c3ccc(F)c(F)c3)c2Cl)[nH]c1=O` [Compound I-53], the CC50 with C8166 cells (human, 3 days) is above 200000 nM. Further, the cytotoxic concentration (CC50) at 3 days in data set [1] was above 200000 nM. This compound gave a pEC50 in the data set on HIV-1IIIB of 6.85.
As for `CCc1c(Cc2c(Cl)cccc2Cl)nc(SCc2n[nH]c(-c3ccc(F)c(F)c3)c2Cl)[nH]c1=O` [Compound I-55], the cytotoxic concentration (CC50) with C8166 cells (human, 3 days) was above 200000 nM. This compound also returned a half-maximal cytotoxic concentration (CC50) at 3 days in data set [1] above 200000 nM. The pEC50 with HIV-1IIIB was 6.15.
Compound `CCc1c(Cc2ccc3c(c2)OCO3)nc(SCc2cc(-c3ccc(F)c(F)c3)[nH]n2)[nH]c1=O` [Compound I-62] registered a 50% cytotoxic concentration (CC50) at 3 days in data set [1] above 200000 nM. Moreover, in the data set with HIV-1IIIB, the pEC50 is 5.30.
In data set [1], `CCc1c(Cc2cc(F)cc(F)c2)nc(SCc2n[nH]c(-c3ccc(F)cc3)c2Cl)[nH]c1=O` [Compound I-63] showed a CC50 at 3 days above 200000 nM. In the data set on HIV-1IIIB, this compound showed a pEC50 of 7.20.
Consider `CCc1c(Cc2c(Cl)cccc2Cl)nc(SCc2n[nH]c(-c3ccc(F)cc3)c2Cl)[nH]c1=O` [Compound I-64], for which the 50% cytotoxic concentration (CC50) at 3 days in data set [1] was above 200000 nM. This compound showed a negative-log EC50 (pEC50) in the data set on HIV-1IIIB of 6.19.
As for `CCc1c(Cc2ccc3c(c2)OCO3)nc(SCc2n[nH]c(-c3ccc(F)cc3)c2Cl)[nH]c1=O` [Compound I-65], in data set [1], the CC50 at 3 days was above 200000 nM. The negative-log EC50 (pEC50) with HIV-1IIIB is 6.43.
For `O=c1cc(CC2CCCCC2)nc(SCc2n[nH]c(-c3ccc(F)cc3)c2Cl)[nH]1` [Compound I-67], in data set [1], the cytotoxic concentration (CC50) at 3 days is above 200000 nM. In the data set with HIV-1IIIB, this compound had a negative logarithm of the EC50 (pEC50) of 6.07.
For the compound `Cc1c(CC2CCCCC2)nc(SCc2n[nH]c(-c3ccc(F)cc3)c2Cl)[nH]c1=O` [Compound I-68], the CC50 at 3 days in data set [1] was above 200000 nM. Besides, the pEC50 in the data set with HIV-1IIIB is 6.95.
Regarding `CCc1c(Cc2cc(F)cc(F)c2)nc(SCc2n[nH]c(-c3ccccc3)c2Cl)[nH]c1=O` [Compound I-69], the half-maximal cytotoxic concentration (CC50) at 3 days in data set [1] is above 200000 nM. Also, the pEC50 in the data set on HIV-1IIIB was 7.26.
For `CCc1c(Cc2c(Cl)cccc2Cl)nc(SCc2n[nH]c(-c3ccccc3)c2Cl)[nH]c1=O` [Compound I-70], the CC50 at 3 days in data set [1] is above 200000 nM. For the same compound, the negative-log EC50 (pEC50) with HIV-1IIIB was 7.04.
In data set [1], `CCc1c(Cc2ccccc2)nc(SCc2n[nH]c(-c3ccccc3)c2Cl)[nH]c1=O` [Compound I-71] showed a CC50 at 3 days above 200000 nM. In the data set on HIV-1IIIB, this compound gave a pEC50 of 7.29.
`CCc1c(Cc2ccc3c(c2)OCO3)nc(SCc2n[nH]c(-c3ccccc3)c2Cl)[nH]c1=O` [Compound I-72] returned a cytotoxic concentration (CC50) at 3 days in data set [1] above 200000 nM. In the data set on HIV-1IIIB, this compound gave a negative-log EC50 (pEC50) of 7.09.
